Results: ChEMBL document CHEMBL1201862, “PubChem BioAssay data set” (2004)
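96-well plates; 48 h exposure; 5 concentrations. Endpoints by linear interpolation between flanking doses. Not reached: highest tested concentration assigned. The concentration for 50% growth inhibition is given as GI50.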 Active and inactive are the calls of the source. No stated cut-off is given here; in the data, active = GI50 up to about 1.1 µM and inactive = higher.

How the values were obtained:
Assay in all cases: NCI anticancer screen, dose series, 48 h
EKVX = tested on: EKVX
HT-29 = tested on: HT-29
Malme-3M = tested on: Malme-3M
SR = tested on: SR
UACC-257 = tested on: UACC-257
BT-549 = tested on: BT-549
LOX IMVI = tested on: LOX IMVI
SF-268 = tested on: SF-268
NCI/ADR-RES = tested on: NCI/ADR-RES
K562 = tested on: K562
RPMI-8226 = tested on: RPMI-8226
HL-60 = tested on: HL-60
786-0 = tested on: 786-0
ACHN = tested on: ACHN
OVCAR-4 = tested on: OVCAR-4
HOP-92 = tested on: HOP-92
TK-10 = tested on: TK-10
T47D = tested on: T47D
SK-MEL-5 = tested on: SK-MEL-5
U-251 = tested on: U-251

Structure (SMILES)	GI50 (EKVX)	GI50 (HT-29)	GI50 (Malme-3M)	GI50 (SR)	GI50 (UACC-257)	GI50 (BT-549)	GI50 (LOX IMVI)	GI50 (SF-268)	GI50 (NCI/ADR-RES)	GI50 (K562)	GI50 (RPMI-8226)	GI50 (HL-60)	GI50 (786-0)	GI50 (ACHN)	GI50 (OVCAR-4)	GI50 (HOP-92)	GI50 (TK-10)	GI50 (T47D)	GI50 (SK-MEL-5)	GI50 (U-251)
Cn1c([N+](=O)[O-])cnc1CN1CCN(CCO)CC1	> 100 µM (inactive)	> 100 µM (inactive)	> 100 µM (inactive)	> 100 µM (inactive)	> 100 µM (inactive)	> 100 µM (inactive)	> 100 µM (inactive)	> 100 µM (inactive)	> 100 µM (inactive)	> 100 µM (inactive)	> 100 µM (inactive)	> 100 µM (inactive)	> 100 µM (inactive)	> 100 µM (inactive)	> 100 µM (inactive)	> 100 µM (inactive)	> 100 µM (inactive)	> 100 µM (inactive)	> 100 µM (inactive)	> 100 µM (inactive)
O=C(c1ccccc1)c1c(C(F)(F)F)[n+]([O-])c2ccccc2[n+]1[O-]	2.17 µM (inactive)	0.687 µM (active)	2 µM (inactive)	0.0738 µM (active)	1.84 µM (inactive)	0.476 µM (active)	0.291 µM (active)	0.995 µM (active)	0.469 µM (active)	0.209 µM (active)	0.237 µM (active)	0.205 µM (active)	1.92 µM (inactive)	1.36 µM (inactive)	0.302 µM (active)	0.207 µM (active)	1.64 µM (inactive)	0.396 µM (active)	1.87 µM (inactive)	1.16 µM (inactive)
Clc1ccc(C2=NN=C3C(c4ccccc4)=Nc4ccccc4N3C2)cc1	4.97 µM (inactive)	3.01 µM (inactive)	5.45 µM (inactive)	1.08 µM (active)	5.73 µM (inactive)	12.1 µM (inactive)	3.76 µM (inactive)	2.88 µM (inactive)	4.48 µM (inactive)	2.88 µM (inactive)	2.63 µM (inactive)	2.56 µM (inactive)	5.28 µM (inactive)	7.06 µM (inactive)	2.01 µM (inactive)	> 25.1 µM (inactive)	3.89 µM (inactive)	1.45 µM (inactive)	3.27 µM (inactive)	5.46 µM (inactive)
CC1CC2OC(=O)C(C)C2CC2(C)C(OC3OC(CO)C(O)C(O)C3O)OCCC12 (stereo not given)	> 100 µM (inactive)	> 100 µM (inactive)	> 100 µM (inactive)	> 100 µM (inactive)	> 100 µM (inactive)	15.5 µM (inactive)	> 100 µM (inactive)	> 100 µM (inactive)	> 100 µM (inactive)	> 100 µM (inactive)	> 100 µM (inactive)	> 100 µM (inactive)	> 100 µM (inactive)	> 100 µM (inactive)	> 100 µM (inactive)	> 100 µM (inactive)	> 100 µM (inactive)	> 100 µM (inactive)	> 100 µM (inactive)	> 100 µM (inactive)
Cc1cc2c(cc1C)C(=O)/C(=C/c1ccccc1C(=O)O)C2	50.7 µM (inactive)	39.1 µM (inactive)	47.8 µM (inactive)	21.2 µM (inactive)	> 100 µM (inactive)	25.6 µM (inactive)	25.9 µM (inactive)	31.8 µM (inactive)	54.8 µM (inactive)	37.2 µM (inactive)	24.3 µM (inactive)	30.5 µM (inactive)	40.3 µM (inactive)	55 µM (inactive)	35 µM (inactive)	33.3 µM (inactive)	> 100 µM (inactive)	47.8 µM (inactive)	47.6 µM (inactive)	22.9 µM (inactive)
CCN(CC)Cc1ccc(Nc2c3ccccc3nc3ccccc23)cc1	3.3 µM (inactive)	1.91 µM (inactive)	1.36 µM (inactive)	2.17 µM (inactive)	1.71 µM (inactive)	10.1 µM (inactive)	1.56 µM (inactive)	2.82 µM (inactive)	5.48 µM (inactive)	1.6 µM (inactive)		2.79 µM (inactive)	1.67 µM (inactive)	0.364 µM (active)	2.57 µM (inactive)	2.79 µM (inactive)	6.14 µM (inactive)	4.16 µM (inactive)	1.71 µM (inactive)	2.16 µM (inactive)
c1ccc(COCC23CCN(Cc4ccccc4)C(CC(OCc4ccccc4)C2)S3)cc1 (stereo not given)	49 µM (inactive)	25.8 µM (inactive)	29.7 µM (inactive)	26.6 µM (inactive)	45.3 µM (inactive)	42.6 µM (inactive)	19.3 µM (inactive)	73.3 µM (inactive)	83 µM (inactive)	31 µM (inactive)	35.2 µM (inactive)	19.5 µM (inactive)	> 100 µM (inactive)	78.9 µM (inactive)	53.1 µM (inactive)	20.3 µM (inactive)		26.4 µM (inactive)	15.8 µM (inactive)	44.8 µM (inactive)
CC1(CC(=O)O)OC2CCCCCC2O1.NCc1ccccc1 (stereo not given)	20.2 µM (inactive)	64.1 µM (inactive)	> 100 µM (inactive)	> 100 µM (inactive)	53.5 µM (inactive)	> 100 µM (inactive)	> 100 µM (inactive)	> 100 µM (inactive)	> 100 µM (inactive)	57.8 µM (inactive)	31.9 µM (inactive)	> 100 µM (inactive)	> 100 µM (inactive)	> 100 µM (inactive)	> 100 µM (inactive)	51.4 µM (inactive)	> 100 µM (inactive)	92.9 µM (inactive)	88.1 µM (inactive)	91.4 µM (inactive)
C#CCOC(=O)C(N)CCSC (stereo not given)	> 100 µM (inactive)	> 100 µM (inactive)	> 100 µM (inactive)	> 100 µM (inactive)	> 100 µM (inactive)	> 100 µM (inactive)	> 100 µM (inactive)	> 100 µM (inactive)	> 100 µM (inactive)		> 100 µM (inactive)	> 100 µM (inactive)	> 100 µM (inactive)	> 100 µM (inactive)		> 100 µM (inactive)	> 100 µM (inactive)	> 100 µM (inactive)	> 100 µM (inactive)	> 100 µM (inactive)
COc1ccc2nc3cc(Cl)ccc3c(NCCNC(=O)Cn3c(=O)n(C)c(=O)c4c3nc3c(c(=O)n(C)c(=O)n3C)[n+]4[O-])c2c1	34.7 µM (inactive)	24.2 µM (inactive)	37.2 µM (inactive)	18.5 µM (inactive)	32.7 µM (inactive)	23 µM (inactive)	38.3 µM (inactive)	17.2 µM (inactive)	38.8 µM (inactive)	46.8 µM (inactive)	> 80.9 µM (inactive)	> 100 µM (inactive)	43.1 µM (inactive)	36.8 µM (inactive)	> 64.7 µM (inactive)	28.1 µM (inactive)	29 µM (inactive)	35.6 µM (inactive)	58.2 µM (inactive)	21 µM (inactive)
CCOc1cc(NC(C)=O)ccc1C(=O)NN1C(=O)C(Oc2ccccc2)C1c1ccccc1 (stereo not given)	> 100 µM (inactive)	> 100 µM (inactive)	52.5 µM (inactive)	4.15 µM (inactive)	> 100 µM (inactive)	> 100 µM (inactive)	85.3 µM (inactive)	> 100 µM (inactive)	> 100 µM (inactive)	49.5 µM (inactive)	35.9 µM (inactive)	25.9 µM (inactive)	> 100 µM (inactive)	26.5 µM (inactive)	> 100 µM (inactive)	> 100 µM (inactive)	> 100 µM (inactive)	44.4 µM (inactive)	42.8 µM (inactive)	
Cn1cc(-c2n[nH]c(-c3ccc(Cl)cc3)nc2=O)c2ccccc21	4.41 µM (inactive)	2.19 µM (inactive)	3.44 µM (inactive)	0.774 µM (active)	7.53 µM (inactive)	5.57 µM (inactive)	5.64 µM (inactive)	7.59 µM (inactive)	1.69 µM (inactive)	0.544 µM (active)	3.23 µM (inactive)	0.671 µM (active)	3.38 µM (inactive)	7.76 µM (inactive)	15.1 µM (inactive)	12.3 µM (inactive)	11.8 µM (inactive)	9.59 µM (inactive)	1.35 µM (inactive)	2.31 µM (inactive)
Cn1c2ccccc2c(=NNc2ccc(S(=O)(=O)N=C(N)N)cc2)c2ccccc21	5.57 µM (inactive)	3.8 µM (inactive)	8.26 µM (inactive)	5.01 µM (inactive)	15.5 µM (inactive)	9.42 µM (inactive)	5.02 µM (inactive)	5.75 µM (inactive)	21.8 µM (inactive)	4.39 µM (inactive)	7.8 µM (inactive)	14.1 µM (inactive)	5.98 µM (inactive)	4.55 µM (inactive)	3.37 µM (inactive)	12.1 µM (inactive)	7.6 µM (inactive)	6.35 µM (inactive)	5.41 µM (inactive)	8.02 µM (inactive)
CCCCc1ccc(Nc2ncc3ncn(COCCO)c3n2)cc1	22.9 µM (inactive)	21.8 µM (inactive)	23.1 µM (inactive)	17.1 µM (inactive)	27.9 µM (inactive)	36.1 µM (inactive)	17.9 µM (inactive)	40.9 µM (inactive)	29 µM (inactive)	14 µM (inactive)	16.4 µM (inactive)	23.8 µM (inactive)	26.6 µM (inactive)	26.1 µM (inactive)	41.1 µM (inactive)	25.8 µM (inactive)	37.8 µM (inactive)	28.4 µM (inactive)	21.8 µM (inactive)	39.4 µM (inactive)
